This is an account of results in US20150004110A1, “NOVEL ANTI-AGING AND DEPIGMENTING COSMETIC COMPOSITIONS” (DIVERCHIM, priority 2011, published 2015).

Molecules are shown by their SMILES. Read-outs that look alike come from different tables or passages of the source.

Assay [1] has as its system B16 melanocytes stimulated with NDP-MSH. Nature of the assay: Anti-melanogenesis activity: melanin synthesis in B16 melanocytes stimulated with NDP-MSH. It counts as cell-based. The procedure: The depigmenting effect was evaluated on a line of type B16 melanocytes stimulated with NDP-MSH, (natural hormone stimulating melanogenesis; Melanocyte Stimulating Hormone, [Nle, DPhe]-α-MSH). Melanin synthesis was evaluated.
The anti-melanogenesis activity of the compounds in solution in DMSO was evaluated by measuring melanin synthesis in a model of B16 melanocytes stimulated with a stable derivative of α-MSH (natural melanogenesis stimulating hormone): NDP-MSH.
The melanocytes were seeded in a 96-well plate and were cultured for 24 h (37° C., 5% CO2, DMEM 1 g/L glucose without phenol red supplemented with glucose at 3 g/L, L-glutamine at 2 mM, penicillin at 50 U/mL, streptomycin at 50 μg/mL, foetal calf serum (FCS) at 10%). After incubation, the culture medium was then replaced with culture medium supplemented or not supplemented (unstimulated control) with a stable derivative of α-MSH and containing or not containing (controls) the test compounds or the reference (kojic acid at 25, 100, 400, 800 μg/mL). Each experiment was carried out with n=3, apart from the controls carried out with n=6, then the cells were incubated for 72 h. Wells without cells received in parallel the same quantities of medium supplemented or not supplemented with NDP-MSH and containing or not containing the test compounds or the reference in order to quantify the background noise associated with the presence of the compounds.
After incubation for 72 hours, the total melanin (intra- and extracellular) was quantified by measuring the absorption at 405 nm of each sample (direct reading of the culture plates) against a standard range of melanin (melanin concentrations tested from 0.78 to 100 μg/mL). The background noise, measured in the wells without cells, was subtracted from the measured values so as only to take into account the effect connected with melanin production, without taking into account the possible interference connected with the presence of the compounds. The results were expressed as percentage of melanin relative to the control as well as percentage inhibition.
The operating conditions are the same as in Example 12.

Assay [2] relates to matrix metallopeptidase gene MMP9. As to the kind of experiment: RT-qPCR expression of MMP9 in keratinocytes. It counts as cell-based, human. The following applies: 10 μM. The procedure:
The expression of the specific markers was evaluated by RT-qPCR (reverse transcription quantitative polymerase chain reaction) on messenger RNAs extracted from the cell lawns from each treatment. The transcriptomic profile contains 64 genes selected for their importance in keratinocyte differentiation. The PCR reactions (polymerase chain reactions) were carried out by quantitative PCR with the “Light Cycler” system (Roche Molecular System Inc.) according to the procedures recommended by the supplier. Normal human epidermal keratinocytes were incubated in the presence of compound 1 or a reference with calcium chloride. The expression of the specific markers was evaluated by RT-qPCR on the messenger RNAs extracted from the cell lawns from each treatment.

In the next assay the test system is Transglutaminase K, TGK. Nature of the assay: In situ immunolabelling of TGK in keratinocytes. Conditions: normal human epidermal keratinocytes. It counts as cell-based. The source says:
Transglutaminase K, TGK, and filaggrin are two protein markers of epidermal differentiation involved in arrangement of the keratin filaments and formation of the envelope of the stratum corneum.

Assay [3] deals with normal human dermal fibroblasts. As to the kind of experiment: Neosynthesis of sulphated GAGs ([35S]-sulphate incorporation) in dermal fibroblasts. It counts as cell-based. The following applies: monolayer of normal human dermal fibroblasts. The procedure:
The effects of this compound were evaluated on a monolayer of normal human dermal fibroblasts by measuring the neosynthesis of glycosaminoglycans designated as sulphated GAGs (incorporation of [^35S]-sulphate). […] This might explain the effect of dermal reinforcement already observed on skin explants ex vivo.

Another assay deals with T1, PPARα (h) (Homo sapiens, UniProt Q07869).
T1 sequence (Q07869 1-468): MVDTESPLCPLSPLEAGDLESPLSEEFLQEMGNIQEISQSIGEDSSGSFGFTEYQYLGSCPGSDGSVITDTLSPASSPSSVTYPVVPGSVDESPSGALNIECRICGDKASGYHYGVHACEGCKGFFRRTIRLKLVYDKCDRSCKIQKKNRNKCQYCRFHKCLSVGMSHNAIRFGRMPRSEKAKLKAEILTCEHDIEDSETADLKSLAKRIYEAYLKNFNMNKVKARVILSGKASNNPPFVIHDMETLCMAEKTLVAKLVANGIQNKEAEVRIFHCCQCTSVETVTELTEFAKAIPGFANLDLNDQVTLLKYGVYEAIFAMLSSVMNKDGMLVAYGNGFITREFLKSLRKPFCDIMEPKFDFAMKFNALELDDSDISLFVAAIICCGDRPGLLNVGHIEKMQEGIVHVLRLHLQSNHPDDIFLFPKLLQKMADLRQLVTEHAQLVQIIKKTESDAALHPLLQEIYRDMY
Nature of the assay: PPARα competitive radioligand binding assay (Cerep). The procedure:
The affinity of compound 1 for the PPAR receptors (α and γ) was tested by in vitro binding assays (tests carried out by the company Cerep).
This is a nuclear receptor competitive binding assay, between a radiolabelled ligand and the test molecule (here compound 1).
The principle of the technique consists of measuring the displacement of the radioactive ligand bound to the receptor by the test molecule. • Material and Methods
The specific binding of the ligand is defined by the difference between total binding and non-specific binding determined in the presence of an excess of unlabelled ligand.
The results are expressed as: • percentage of control specific binding ((measured specific binding/control specific binding)×100)) • percentage of inhibition of control specific binding ((100−(measured specific binding/control specific binding)) obtained in the presence of compound 1.
The values of IC50 (concentration at which the maximum control specific binding is inhibited by 50%), and the Hill coefficient (nH) are determined by non-linear regression analysis of the curves of competition with a mean replicated value using adjustment of Hill's equation
The inhibition constant (Ki) was calculated using the Cheng-Prusoff equation

Setting [4] is: Melanocyte, NDP-MSH stimulated B16, 72 h, Table 2, read-out: Standardized data Inhibition (%) (melanin).
The mark [5] stands for this setting: Melanocyte, comparison with 2 reference molecules, Table 3, read-out: Standardized data Inhibition (%) (melanin).

For `Oc1ccccc1CCOc1ccc(F)cc1` [Compound 1, 2-[2-(4-fluoro-phenoxy)-ethyl]-phenol], the “Depigmenting effect (inhibition of melanin synthesis), in words” value in assay [1] (30 μM and 100 μM) was “clear inhibitory effect”. Also, in assay [1] (30 μM and 100 μM, versus rucinol and [869743-37-3]), the “Depigmenting effectiveness compared with the two reference products” value is on record as “slightly more effective than the two reference products used”. The inhibition – broadly, the relative decrease from the control value, in per cent – at 10 µM stood at 0% in assay [1] (Melanocyte, 10 μM, NDP-MSH stimulated B16, 72 h, Table 2, read-out: Standardized data Inhibition (%) (melanin)) and 0% at PPARα (h) (10^−5 M, agonist radioligand, read-out: % Inhibition of control specific binding). The results for the inhibition at 30 µM in assay [1] (setting [4]) and in assay [1] (setting [5]) were 93% and 98%, respectively. For the same compound, the inhibition at 100 µM in assay [1] (setting [4]) was 112%; in assay [1] (setting [5]) it was 124%. Besides, the “Expression of the MMP9 gene” value in assay [2] is recorded as “inhibition of expression”. Besides, the “Protein expression of TGK” value in the assay with Transglutaminase K, TGK is recorded as “concentration-dependent stimulation of protein expression”. Moreover, the “Neosynthesis of sulphated GAGs” value in assay [3] is reported as “stimulated the neosynthesis of sulphated GAGs, in a non-concentration-dependent fashion”. The inhibition at 1 µM at PPARα (h) (10^−6 M, agonist radioligand, read-out: % Inhibition of control specific binding) was -2%. Also, the inhibition at 0.1 µM on PPARα (h) (10^−7 M, agonist radioligand, read-out: % Inhibition of control specific binding) was -5%. In addition, the “Activity with respect to the PPARα receptor (binding, conclusion in words)” value on PPARα (h) (10^−7 to 10^−5 M) is recorded as “no activity”.
